From US6465482B2, “Arylpiperazinyl-cyclohexyl indole derivatives for the treatment of depression” (Wyeth, priority 1999, dated 2002)
Counter-ions that a name gives are not always drawn.

Target: T1, human 5-HT1A receptor subtype (Homo sapiens, UniProt P08908)
T1 construct: expressed in transfected cells
T1 sequence (P08908 1-422): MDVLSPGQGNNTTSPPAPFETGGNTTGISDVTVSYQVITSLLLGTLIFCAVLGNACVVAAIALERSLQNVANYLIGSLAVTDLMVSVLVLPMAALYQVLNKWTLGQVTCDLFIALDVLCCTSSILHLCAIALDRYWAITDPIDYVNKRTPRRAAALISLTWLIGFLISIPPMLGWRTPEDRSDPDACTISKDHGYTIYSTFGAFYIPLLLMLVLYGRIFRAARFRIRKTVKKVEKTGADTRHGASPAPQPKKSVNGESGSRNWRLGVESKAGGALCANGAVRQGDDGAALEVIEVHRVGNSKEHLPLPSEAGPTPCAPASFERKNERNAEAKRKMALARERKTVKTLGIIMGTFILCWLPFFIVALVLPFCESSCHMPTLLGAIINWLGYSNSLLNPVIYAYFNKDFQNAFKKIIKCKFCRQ
Assay: 5-HT1A receptor binding, [3H]8-OH-DPAT, CHO cell membranes
Conditions: [3H]8-OH-DPAT 1.5 nM
Procedure: The PCR cloning of the human 5-HT1A receptor subtype from a human genomic library has been described previously Chanda et al., Mol. Pharmacol., 43:516 (1993). A stable Chinese hamster ovary cell line expressing the human 5-HT1A receptor subtype (5-HT1A.CH2O cells) was employed throughout this study. Cells were maintained in DMEM supplemented with 10% fetal calf serum, non-essential amino acids and penicillin/streptomycin.
Cells were grown to 95-100% confluency as a monolayer before membranes were harvested for binding studies. Cells were gently scraped from the culture plates, transferred to centrifuge tubes, and washed twice by centrifugation (2000 rpm for 10 min., 4° C.) in buffer (50 mM Tris; pH 7.5). The resulting pellets were aliquoted and placed at −80° C. On the day of assay, the cells were thawed on ice, and resuspended in buffer. Studies were conducted using [^3H]8-OH-DPAT as the radioligand. The binding assay was performed in 96 well microtiter plates in a final total volume of 250 μL of buffer. Competition experiments were performed by using 7 concentrations of unlabelled drug and a final ligand concentration of 1.5 nM. Non-specific binding was determined in the presence of 10 μM 5HT. Saturation analysis was conducted by using [^3H]8-OH-DPAT at concentaritions ranging from 0.3-30 nm Following a 30 minute incubation at room temperature, the reaction was terminated by the addition of ice cold buffer and rapid filtration using a M-96 Brandel Cell Harvester (Gaithersburg, Md.) through a GF/B filter presoaked for 30 minutes in 0.5% polyethylenenimine.

SMILES	Ki
Fc1cccc2[nH]cc([C@H]3CC[C@@H](N4CCN(c5cccc6c5OCCO6)CC4)CC3)c12 [Example 23a, 3-{(1,4-cis)-4-[4-(2,3-Dihydro-benzo[1,4]dioxin-5-yl)-piperazin-1-yl]-cyclohexyl}-4-fluoro-1H-indole]	103 nM
Fc1cccc2[nH]cc([C@H]3CC[C@H](N4CCN(c5cccc6c5OCCO6)CC4)CC3)c12 [Example 23b, 3-{(1,4-trans)-4-[4-(2,3-Dihydro-benzo[1,4]dioxin-5-yl)-piperazin-1-yl]-cyclohexyl}-4-fluoro-1H-indole]	14.9 nM
CCn1cc([C@H]2CC[C@H](N3CCN(c4cccc5[nH]ccc45)CC3)CC2)c2cc(C#N)ccc21 [Example 13b, 1-Ethyl-3-{(1,4-trans)-4-[4-(1H-indol-4-yl)-piperazin-1-yl]-cyclohexyl}-1H-indole-5-carbonitrile]	827 nM
CCCn1cc([C@H]2CC[C@@H](N3CCN(c4cccc5[nH]ccc45)CC3)CC2)c2cc(C#N)ccc21 [Example 14a, 3-{(1,4-cis)-4-[4-(1H-Indol-4-yl)-piperazin-1-yl]-cyclohexyl}-1-propyl-1H-indole-5-carbonitrile]	820 nM
Fc1ccc2[nH]cc([C@H]3CC[C@H](N4CCN(c5cccc6cccnc56)CC4)CC3)c2c1 [Example 27b, 8-{4-[(1,4-trans)-4-(5-Fluoro-1H-indol-3-yl)-cyclohexyl]-piperazin-1-yl}-quinoline]	6.54 nM
Fc1cc2c(c(N3CCN([C@H]4CC[C@H](c5c[nH]c6ccc(F)cc65)CC4)CC3)c1)OCCC2 [Example 31b, 5-Fluoro-3-{(1,4-trans)-4-[4-(6-fluoro-chroman-8-yl)-piperazin-1-yl]-cyclohexyl}-1H-indole]	32.4 nM
Fc1ccc2[nH]cc([C@H]3CC[C@@H](N4CCN(c5cccc6cccnc56)CC4)CC3)c2c1 [Example 27a, 8-{4-[(1,4-cis)-4-(5-Fluoro-1H-indol-3-yl)-cyclohexyl]-piperazin-1-yl}-quinoline]	69.7 nM
COc1ccccc1N1CCN([C@H]2CC[C@@H](c3c[nH]c4ncccc43)CC2)CC1 [Example 21, 3-{(1,4-cis)-4-[4-(2-Methoxy-phenyl)-piperazin-1-yl]-cyclohexyl}-1H-pyrrolo[2,3-b]pyridine]	110 nM
Fc1cc2c(c(N3CCN([C@H]4CC[C@H](c5c[nH]c6ccc(F)cc65)CC4)CC3)c1)OCC2 [Example 32b, 5-Fluoro-3-{(1,4-trans)-4-[4-(5-fluoro-2,3-dihydro-benzofuran-7-yl)-piperazin-1-yl]-cyclohexyl}-1H-indole]	49.1 nM
CCn1cc([C@H]2CC[C@@H](N3CCN(c4cccc5[nH]ccc45)CC3)CC2)c2cc(C#N)ccc21 [Example 13a, 1-Ethyl-3-{(1,4-cis)-4-[4-(1H-indol-4-yl)-piperazin-1-yl]-cyclohexyl}-1H-indole-5-carbonitrile]	563 nM
COc1ccc2[nH]cc([C@H]3CC[C@@H](N4CCN(c5ccccc5OC)CC4)CC3)c2c1 [Example 20a, 5-Methoxy-3-{(1,4-cis)-4-[4-(2-methoxy-phenyl)-piperazin-1-yl]-cyclohexyl}-1H-indole]	631 nM

Same assay, conditions: concentration not given

SMILES	5-HT1A, value given as %
Cn1ccc2c(N3CCN([C@H]4CC[C@@H](c5cn(C)c6cc(F)ccc65)CC4)CC3)cccc21 [Example 11, 6-Fluoro-1-methyl-3-{cis-4-[4-(1-methyl-1H-indol-4-yl)-1-piperazinyl]cyclohexyl}-1H-indole]	0%
CCCn1cc([C@H]2CC[C@H](N3CCN(c4cccc5[nH]ccc45)CC3)CC2)c2cc(C#N)ccc21 [Example 14b, 3-{(1,4-trans)-4-[4-(1H-indol-4-yl)-piperazin-1-yl]-cyclohexyl}-1-propyl-1H-indole-5-carbonitrile]	0%
Brc1ccc2[nH]cc([C@H]3CC[C@H](N4CCN(c5cccc6[nH]ccc56)CC4)CC3)c2c1 [Example 5b, 5-Bromo-3-[trans-4-[4-(1H-indol-4-yl)-1-piperazinyl]cyclohexyl]-1H-indole]	78.7%
Brc1ccc2[nH]cc([C@H]3CC[C@@H](N4CCN(c5cccc6[nH]ccc56)CC4)CC3)c2c1 [Example 5a, 5-Bromo-3-[cis-4-[4-(1H-indol-4-yl)-1-piperazinyl]cyclohexyl]-1H-indole]	0%

System: not given
Assay: not given
Conditions: not given

SMILES	melting point
Clc1ccc2[nH]cc([C@H]3CC[C@H](N4CCN(c5cccc6[nH]ccc56)CC4)CC3)c2c1 (as salt: HCl) (hydrate or solvate) [Example 6b, 5-Chloro-3-[trans-4-[4-(1H-indol-4-yl)-1-piperazinyl]cyclohexyl]-1H-indole]	314 to 315.5 °C
COc1cc(N2CCN([C@H]3CC[C@H](c4cn(C)c5ccc(C#N)cc54)CC3)CC2)c2ncccc2c1C [Example 52b, (trans)-3-{4-[4-(6-Methoxy-5-methylquinolin-8-yl)piperazin-1-yl]cyclohexyl}-1-methyl-1H-indole-5-carbonitrile]	212 to 213 °C
Cn1cc([C@H]2CC[C@H](N3CCN(c4cccc5[nH]ccc45)CC3)CC2)c2cc(C#N)ccc21 (as salt: HCl) (hydrate or solvate) [Example 12b, 3-{(1,4-trans)-4-[4-(1H-indol-4-yl)-piperazin-1-yl]-cyclohexyl}-1-methyl-1H-indole-5-carbonitrile]	286 to 288 °C
Fc1cc2c(c(N3CCN([C@H]4CC[C@H](c5c[nH]c6ccc(F)cc65)CC4)CC3)c1)OCC2 (as salt: HCl) (hydrate or solvate) [Example 32b, 5-Fluoro-3-{(1,4-trans)-4-[4-(5-fluoro-2,3-dihydro-benzofuran-7-yl)-piperazin-1-yl]-cyclohexyl}-1H-indole]	303 to 305 °C
CN(C)C(=O)c1cc(N2CCN([C@H]3CC[C@H](c4cn(C)c5ccc(C#N)cc54)CC3)CC2)c2ncccc2c1 [Example 77b, 8-[4-[(trans)-4-(5-Cyano-1-methyl-1H-indol-3-yl)cyclohexyl]-1-piperazinyl]-N,N-dimethyl-6-quinolincarboxamide]	160 to 163 °C
COc1ccccc1N1CCN([C@H]2CC[C@@H](c3c[nH]c4ccc(F)cc43)CC2)CC1 (as salt: HCl) [Example 18, 5-Fluoro-3-{(cis)-4-[4-(2-methoxy-phenyl)-piperazin-1-yl]-cyclohexyl}-1H-indole]	170 to 172 °C
N#Cc1ccc2[nH]cc([C@H]3CC[C@H](N4CCN(c5cccc6[nH]ccc56)CC4)CC3)c2c1 (as salt: HCl) [Example 7b, 3-{4-[(1,4-trans)-4-(1H-Indol-4-yl)-piperazinyl-1-yl]cyclohexyl}-1H-indole-5-carbonitrile]	> 310 °C
CCn1cc([C@H]2CC[C@@H](N3CCN(c4cccc5[nH]ccc45)CC3)CC2)c2cc(C#N)ccc21 (as salt: HCl) (hydrate or solvate) [Example 13a, 1-Ethyl-3-{(1,4-cis)-4-[4-(1H-indol-4-yl)-piperazin-1-yl]-cyclohexyl}-1H-indole-5-carbonitrile]	245 °C
COc1cc(N2CCN([C@H]3CC[C@@H](c4cn(C)c5ccc(C#N)cc54)CC3)CC2)c2ncccc2c1Cl [Example 52e, (cis)-3-{4-[4-(5-Chloro-6-methoxyquinolin-8-yl)piperazin-1-yl]cyclohexyl}-1-methyl-1H-indole-5-carbonitrile]	231 °C
COc1cc(N2CCN([C@H]3CC[C@@H](c4c[nH]c5ncccc54)CC3)CC2)c2ncccc2c1 (as salt: oxalate) [Example 78, 6-Methoxy-8-{cis-4-[4-(1H-pyrrolo[2,3-b]pyridin-3-yl)cyclohexyl]-1-piperazinyl}quinoline]	216 to 220 °C
COc1ccc2[nH]cc([C@H]3CC[C@H](N4CCN(c5ccccc5OC)CC4)CC3)c2c1 (as salt: HCl) [Example 20b, 5-Methoxy-3-{(1,4-trans)-4-[4-(2-methoxy-phenyl)-piperazin-1-yl]-cyclohexyl}-1H-indole]	195 to 197 °C
Fc1cc2c(c(N3CCN([C@H]4CC[C@H](c5c[nH]c6ccc(F)cc65)CC4)CC3)c1)OCCC2 (as salt: HCl) (hydrate or solvate) [Example 31b, 5-Fluoro-3-{(1,4-trans)-4-[4-(6-fluoro-chroman-8-yl)-piperazin-1-yl]-cyclohexyl}-1H-indole]	286 to 288 °C
Fc1ccc2[nH]cc([C@H]3CC[C@@H](N4CCN(c5cccc6[nH]ccc56)CC4)CC3)c2c1 (as salt: HCl) [Example 3a, 5-Fluoro-3-[cis-4-[4-(1H-indol-4-yl)-1-piperazinyl]cyclohexyl]-1H-indole]	215 to 217 °C
